Tested on: patterned hPSC-CMs
Experiment: beta-adrenergic stimulation of micropatterned hPSC-CMs with isoproterenol (contraction, digital image correlation)
Assay type: cell-based, human
Settings: patterned CMs on 10 kPa PDMS, 1 μM isoproterenol
Description: In this Example, cardiomyocytes were differentiated from the 19-9-11 iPSC line and purified using lactate media. 10 kPa PDMS substrates mimicking the elasticity of the healthy myocardium were made by blending together commercially available Sylgard 184 and 527. […] Statistical analyses were done using one-way ANOVA with post hoc Tukey test.

In the case of CC(C)NCC(O)c1ccc(O)c(O)c1 (centres unmarked) [isoproterenol], the rate of contraction is reported as “increase in the rate of contraction” and the “amplitude of contraction (x-displacement)” value (versus baseline normal contraction) is reported as “amplitude of contraction also increased from baseline”.

Source: patent publication US20200048611A1, “ENGINEERED PLATFORM FOR CONNECTED MICROPATTERNED CARDIAC TISSUES” (Wisconsin Alumni Research Foundation, priority 2018, published 2020)
